Test results reported in article PMC8243326, “Data-Driven Ensemble Docking to Map Molecular Interactions of Steroid Analogs with Hepatic Organic Anion Transporting Polypeptides” (Journal of Chemical Information and Modeling, 2021).

Key:
[1] = molecular target: T1, OATP1B1 (Homo sapiens, UniProt Q9Y6L6); test: Pyranine uptake inhibition in A431 cells overexpressing OATP1B1; conditions: for activity on OATP1B1 and OATP1B3 (in words): statement covers both OATP1B1 and OATP1B3
T1 sequence (Q9Y6L6 1-691): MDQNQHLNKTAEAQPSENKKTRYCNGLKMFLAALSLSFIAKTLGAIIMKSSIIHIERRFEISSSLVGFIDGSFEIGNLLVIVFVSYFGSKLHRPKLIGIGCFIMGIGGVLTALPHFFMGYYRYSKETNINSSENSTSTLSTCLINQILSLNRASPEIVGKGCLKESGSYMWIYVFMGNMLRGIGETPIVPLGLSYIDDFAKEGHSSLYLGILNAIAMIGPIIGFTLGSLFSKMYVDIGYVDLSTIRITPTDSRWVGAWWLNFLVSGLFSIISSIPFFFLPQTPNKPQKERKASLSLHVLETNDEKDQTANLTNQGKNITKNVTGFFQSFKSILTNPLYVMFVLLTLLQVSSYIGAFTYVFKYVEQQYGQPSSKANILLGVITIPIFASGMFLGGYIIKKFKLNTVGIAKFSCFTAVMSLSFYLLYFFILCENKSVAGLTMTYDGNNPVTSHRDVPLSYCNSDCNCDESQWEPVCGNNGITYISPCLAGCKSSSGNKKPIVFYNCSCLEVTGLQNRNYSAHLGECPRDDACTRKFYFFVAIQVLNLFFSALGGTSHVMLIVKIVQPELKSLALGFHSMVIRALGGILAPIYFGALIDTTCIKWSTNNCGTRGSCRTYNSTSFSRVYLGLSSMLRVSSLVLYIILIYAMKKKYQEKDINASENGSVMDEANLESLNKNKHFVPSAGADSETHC
Description: IC50 values were calculated based on transport inhibition measurements (see below) by Hill1 fit, using the Origin Pro8.6 software (OriginLab Corporation, Northampton, MA, US).
(§1) 20 mM stocks in DMSO were stored for further usage at −20 °C. A431 cells overexpressing OATPs, OATP1B1, OATP1B3, or OATP2B1 or mock transfected controls were generated previously.[60] A431 cells were maintained in DMEM medium (Thermo Fischer Scientific, Waltham, MA, US) supplemented with 10% fetal bovine serum, 2 mM L-glutamine, 100 units/mL penicillin, and 100 μg/mL streptomycin at 37 °C with 5% CO2. […] The uptake of pyranine was measured on microplates based on the method developed by us previously.[60],[61]
Briefly, 1 day prior to the uptake measurement cells (8 × 10^4 cells/well in 200 μL DMEM) were seeded on 96-well plates. […] OATP-dependent transport was calculated by extracting fluorescence measured in mock transfected cells. Transport activity was calculated based on the fluorescence signal in the absence (100%) of the tested compounds. Experiments were repeated at least three times on cells deriving from different passages.
(§2) IC50 values were calculated by Hill1 fit, using the (OriginLab Corporation, Northampton, MA, US).

[2] = molecular target: T2, OATP2B1 (Homo sapiens, UniProt O94956); test: Pyranine uptake inhibition in A431 cells overexpressing OATP2B1; conditions: for selectivity for OATP2B1 (in words): vs OATP1B1 and OATP1B3
T2 sequence (O94956 1-709): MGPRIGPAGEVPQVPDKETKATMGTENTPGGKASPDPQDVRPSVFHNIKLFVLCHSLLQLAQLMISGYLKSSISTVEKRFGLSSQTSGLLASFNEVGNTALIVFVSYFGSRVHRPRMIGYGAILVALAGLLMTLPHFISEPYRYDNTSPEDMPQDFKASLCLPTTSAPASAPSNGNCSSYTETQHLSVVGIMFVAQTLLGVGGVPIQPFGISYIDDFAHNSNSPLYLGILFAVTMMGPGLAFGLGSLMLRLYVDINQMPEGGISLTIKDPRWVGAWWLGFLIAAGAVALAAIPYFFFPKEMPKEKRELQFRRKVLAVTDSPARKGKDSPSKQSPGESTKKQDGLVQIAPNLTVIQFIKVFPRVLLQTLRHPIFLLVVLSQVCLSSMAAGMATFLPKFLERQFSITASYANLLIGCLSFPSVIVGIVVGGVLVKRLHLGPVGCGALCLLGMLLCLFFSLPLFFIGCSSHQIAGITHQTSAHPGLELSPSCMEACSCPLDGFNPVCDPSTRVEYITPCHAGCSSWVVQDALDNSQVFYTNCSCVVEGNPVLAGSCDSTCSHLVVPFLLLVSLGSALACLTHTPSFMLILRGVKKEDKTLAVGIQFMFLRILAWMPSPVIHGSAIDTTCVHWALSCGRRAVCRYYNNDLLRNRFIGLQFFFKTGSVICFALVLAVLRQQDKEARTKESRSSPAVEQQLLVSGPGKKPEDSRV
Description: (§3) Compounds with measured bioactivities (Km, IC50, Ki, and EC50 bioactivity end points or percentage inhibition values) on OATP1B1 (n = 440 compounds), OATP1B3 (n = 936 compounds), or OATP2B1 (n = 173 compounds) were collected from the open domain by utilizing a KNIME workflow, which collects data from five independent data sources as described in Tuerkova et al.[15] […] IC50 values were calculated based on transport inhibition measurements (see below) by Hill1 fit, using the Origin Pro8.6 software (OriginLab Corporation, Northampton, MA, US).
as §1
(§4) Briefly, 1 day prior to the uptake measurement cells (8 × 10^4 cells/well in 200 μL DMEM) were seeded on 96-well plates. On the following day, the medium was removed, and the cells were washed three times with 200 μL of phosphate-buffered saline (PBS, pH 7.4) and preincubated with 50 μL of uptake buffer (125 mM NaCl, 4.8 mM KCl, 1.2 mM CaCl2, 1.2 mM KH2PO4, 12 mM MgSO4, 25 mM MES (2-(N-morpholino)ethanesulfonic acid, and 5.6 mM glucose, pH 5.5) with or without increasing concentrations of the tested compounds. The reaction was started by the addition of 50 μL of uptake buffer containing pyranine in a final concentration of 10 μM (OATP1B1) or 20 μM (OATP1B3 and OATP2B1). Cells were incubated with the dye at 37 °C for 15 min (OATP1B1 and OATP2B1) or 30 min (OATP1B3), after which the supernatant was removed, and the cells were washed three times with 200 μL of ice-cold PBS. Fluorescence (in 200 μL of PBS/well) was determined in an Enspire plate reader (PerkinElmer, Waltham, MA, Ex/Em = 403/517 nm). OATP-dependent transport was calculated by extracting fluorescence measured in mock transfected cells. Transport activity was calculated based on the fluorescence signal in the absence (100%) of the tested compounds. Experiments were repeated at least three times on cells deriving from different passages.
as §2

[3] = molecular target: T3, OATP1B3 (Homo sapiens, UniProt Q9NPD5); test: Pyranine uptake inhibition in A431 cells overexpressing OATP1B3
T3 sequence (Q9NPD5 1-702): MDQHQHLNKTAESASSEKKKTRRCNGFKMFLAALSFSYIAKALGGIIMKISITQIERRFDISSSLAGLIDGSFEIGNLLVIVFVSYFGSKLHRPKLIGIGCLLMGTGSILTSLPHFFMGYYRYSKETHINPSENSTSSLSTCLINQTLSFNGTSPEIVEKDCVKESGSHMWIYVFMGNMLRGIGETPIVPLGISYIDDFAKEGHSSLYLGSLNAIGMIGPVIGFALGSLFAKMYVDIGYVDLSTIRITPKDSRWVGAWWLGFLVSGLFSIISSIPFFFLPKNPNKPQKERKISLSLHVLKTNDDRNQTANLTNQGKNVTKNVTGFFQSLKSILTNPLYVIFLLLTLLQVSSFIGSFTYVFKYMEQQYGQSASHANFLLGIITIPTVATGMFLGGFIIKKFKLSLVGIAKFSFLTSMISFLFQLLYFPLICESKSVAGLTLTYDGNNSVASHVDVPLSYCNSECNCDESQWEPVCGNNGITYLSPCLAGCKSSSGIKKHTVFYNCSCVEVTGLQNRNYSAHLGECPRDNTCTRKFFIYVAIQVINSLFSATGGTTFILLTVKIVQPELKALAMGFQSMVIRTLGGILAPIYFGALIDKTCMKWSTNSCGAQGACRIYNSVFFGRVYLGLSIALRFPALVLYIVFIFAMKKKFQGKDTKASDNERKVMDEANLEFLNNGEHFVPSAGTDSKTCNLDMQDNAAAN
Description: as §3, §1, §4, §2

CCOP(=O)(OCC)c1c(OC)ccc2c1CCC1C2CC[C@@]2(C)C(=O)CCC12 (some centres unmarked) [Compound 16]
IC50 [1]: 32.4 µM
activity on OATP1B1 and OATP1B3 (in words) [1]: rather inactive
IC50 [2]: 2.74 µM
IC50 [3]: 11.8 µM

CCOP(=O)(OCC)c1cc2c(cc1O)CCC1C2CC[C@@]2(C)C(=O)CCC12 (some centres unmarked) [Compound 13]
IC50 [1]: 3.79 µM
activity on OATP1B1 and OATP1B3 (in words) [1]: moderate activity
IC50 [2]: 3.18 µM
fold decrease in activity compared with compound 11 ([2]; OATP2B1, 3-hydroxy and 3-methoxy analogs vs 3-benzyloxy compound 11): approximately 17 fold
IC50 [3]: 5.24 µM

C[C@@]12CCC3c4cc(Br)c(O)cc4CCC3C1CCC2=O (some centres unmarked) [Compound 5]
IC50 [1]: > 50 µM
IC50 [2]: 1.19 µM
selectivity for OATP2B1 (in words) [2]: selective
IC50 [3]: > 50 µM

CCOP(=O)(OCC)c1c(OCc2ccccc2)ccc2c1CCC1C2CC[C@@]2(C)C(=O)CCC12 (some centres unmarked) [Compound 12]
IC50 [1]: 3.22 µM
activity on OATP1B1 and OATP1B3 (in words) [1]: highly active
IC50 [2]: 0.75 µM
IC50 [3]: 2.49 µM

C[C@@]12CCC3c4ccc(O)c(I)c4CCC3C1CCC2=O (some centres unmarked) [Compound 8]
IC50 [1]: 9.28 µM
activity on OATP1B1 and OATP1B3 (in words) [1]: weak to borderline inhibitory activity
IC50 [2]: 3.58 µM
IC50 [3]: 8.28 µM

COc1cc2c(cc1Br)C1CC[C@@]3(C)C(=O)CCC3C1CC2 (some centres unmarked) [Compound 4]
IC50 [1]: > 50 µM
IC50 [2]: 8.39 µM
fold decrease in affinity compared to hydroxyl derivative (compound 5) ([2]; OATP2B1): 7 fold
selectivity for OATP2B1 (in words) [2]: selective
IC50 [3]: > 50 µM

C[C@@]12CCC3c4cc(Cl)c(O)cc4CCC3C1CCC2=O (some centres unmarked) [Compound 9]
IC50 [1]: > 50 µM
IC50 [2]: 0.9 µM
selectivity for OATP2B1 (in words) [2]: selective
IC50 [3]: > 50 µM

C[C@@]12CCC3c4ccc(O)c(Cl)c4CCC3C1CCC2=O (some centres unmarked) [Compound 10]
IC50 [1]: 25 µM
IC50 [2]: 10.5 µM
IC50 at 15 min ([2]; human, pH 5.5): 10.5 µM
IC50 [3]: > 50 µM

CCOP(=O)(OCC)c1c(O)ccc2c1CCC1C2CC[C@@]2(C)C(=O)CCC12 (some centres unmarked) [Compound 14]
IC50 [1]: > 50 µM
IC50 [2]: 10.2 µM
IC50 [3]: > 50 µM

CCOP(=O)(OCC)c1cc2c(cc1OCc1ccccc1)CCC1C2CC[C@@]2(C)C(=O)CCC12 (some centres unmarked) [Compound 11]
IC50 [1]: 0.76 µM
activity on OATP1B1 and OATP1B3 (in words) [1]: highly active
IC50 [2]: 0.18 µM
IC50 [3]: 2.18 µM
